Source: article PMC10180076, “Novel Biologically Active N-Substituted Benzimidazole Derived Schiff Bases: Design, Synthesis, and Biological Evaluation” (Molecules, 2023)
pIC50: −log10 of the molar value. Values after ≈ are worked out from the molar mass of the structure shown. Like-named read-outs stand apart in the source and are kept apart here.

Assays:
E. coli efflux del = assay: microbe, parasite or virus in culture; format: cell-based; conditions: for MIC E. coli efflux del: Table 2 prints no unit, μM for compounds, antibiotics tested at 0.125–64 µg/mL
Method: (§1) Selected bacterial strains were Gram-negative E. coli, K. pneumoniae, A. baumannii and P. aeruginosa and Gram-positive S. aureus, S. pneumoniae, and E. faecalis. The synthesized compounds were prepared as 10 mM DMSO solutions and tested in a final concentration range of 0.2–100 µM [39].
(§2) Broth microdilution testing was performed according to CLSI (Clinical Laboratory Standards Institute) guidelines. The MIC (minimal inhibitory concentration) value was defined as the last tested concentration of the compound at which there was no visible growth of bacteria. Inoculums for each microorganism were prepared using the direct colony suspension method, where broth solutions that achieved turbidity equivalent to 0.5 McFarland standard were additionally diluted 100× with Ca adjusted MH media (Becton Dickinson, Franklin Lakes, NJ, USA). All of the test plates were incubated for 16–24 h at 37 °C.
(§3) Methods for dilution of antimicrobial susceptibility tests for bacteria that grow aerobically followed M07, 11th edition, 2018, and Clinical and Laboratory Standards Institute (CLSI) guidelines. Performance standards for antimicrobial susceptibility testing followed the M100, 28th edition, 2018.

S. aureus ATCC 29213 = assay: Broth microdilution MIC, S. aureus; format: cell-based; conditions: Staphylococcus aureus, ATCC29213; read-out: MIC against S. aureus
Method: as §1, §2, §3

LN-229, glioblastoma = assay: Proliferation assay (MTS, 72 h), LN-229; format: cell-based, human; conditions: Homo sapiens, LN-229
Excerpt: (§4) Human cancer cells used in this manuscript, namely Capan-1, HCT-116, NCI-H460, LN-229, HL-60, K-562, and Z-138, were acquired from the American Type Culture Collection (ATCC, Manassas, VA, USA), while the DND-41 cell line was purchased from the Deutsche Sammlung von Mikroorganismen und Zellkulturen (DSMZ Leibniz-Institut, Braunschweig, Germany). Culture media were purchased from Gibco Life Technologies, Merelbeke, Belgium, and supplemented with 10% fetal bovine serum (HyClone, Cytiva, Marlborough, MA, USA). Vincristine and docetaxel, which were used as the reference inhibitors, were purchased from Selleckchem (Munich, Germany). Stock solutions were prepared in DMSO.
(§5) Adherent cell lines LN-229, HCT-116, and NCI-H460 and Capan-1 cells were seeded at a density between 500 and 1500 cells per well, in 384-well tissue culture plates (Greiner, Kremsmünster, Austria). After overnight incubation, the cells were treated with seven different concentrations of the test compounds, ranging from 100 to 0.006 µM.
(§6) Suspension cell lines HL-60, K-562, Z-138, and DND-41 were seeded at densities ranging from 2500 to 5500 cells per well in 384-well culture plates containing the test compounds at the same concentration points. The cells were incubated for 72 h with the compounds and were then analyzed using the CellTiter 96® AQueous One Solution Cell Proliferation Assay (MTS) reagent (Promega, Madison, WI, USA) according to the manufacturer’s instructions. […] The compounds were tested in two independent experiments.

[1] = system: Capan-1, pancreatic adenocarcinoma; assay: Proliferation assay (MTS, 72 h), Capan-1; format: cell-based, human; conditions: Homo sapiens, CAPAN-1
Excerpt: as §4, §5, §6

[2] = system: HCT-116, colorectal carcinoma; assay: Proliferation assay (MTS, 72 h), HCT-116; format: cell-based, human; conditions: Homo sapiens, HCT-116
Excerpt: as §4, §5, §6

NCI-H460, lung carcinoma = assay: Proliferation assay (MTS, 72 h), NCI-H460; format: cell-based, human; conditions: Homo sapiens, NCI-H460
Excerpt: as §4, §5, §6

[3] = system: DND-41, acute lymphoblastic leukemia; assay: Proliferation assay (MTS, 72 h), DND-41; format: cell-based, human; conditions: Homo sapiens, DND41
Excerpt: as §4, §5, §6

[4] = system: HL-60, acute myeloid leukemia; assay: Proliferation assay (MTS, 72 h), HL-60; format: cell-based, human; conditions: Homo sapiens, HL-60
Excerpt: as §4, §5, §6

[5] = system: K-562, chronic myeloid leukemia; assay: Proliferation assay (MTS, 72 h), K-562; format: cell-based, human; conditions: Homo sapiens, K562
Excerpt: as §4, §5, §6

[6] = system: Z-138, non-Hodgkin lymphoma; assay: Proliferation assay (MTS, 72 h), Z-138; format: cell-based, human; conditions: Homo sapiens, Z-138
Excerpt: as §4, §5, §6

[7] = system: human coronavirus HCoV-229E; assay: organism not typed; format: cell-based; conditions: HEL 299 cells, 100 CCID50, MTS; read-out: Antiviral Activity (EC50/μM) HCoV 229E HEL 299
[8] = system: human coronavirus HCoV-OC43; assay: microbe, parasite or virus in culture; format: cell-based; conditions: Betacoronavirus 1, OC43; HEL 299 cells, 100 CCID50, MTS; read-out: Antiviral Activity (EC50/μM) HCoV OC43 HEL 299
[9] = system: human coronavirus HCoV-NL63; assay: Antiviral CPE reduction assay, HCoV-NL63 in Huh-7; format: cell-based; conditions: Huh-7 cells, 100 CCID50, MTS
[10] = system: influenza A/H1N1 (A/Ned/378/05); assay: Antiviral CPE reduction assay, influenza A/H1N1 in MDCK; format: cell-based; conditions: Influenza A virus, MDCK cells, 100 CCID50, MTS
[11] = system: influenza A/H3N2 (A/HK/7/87); assay: Antiviral CPE reduction assay, influenza A/H3N2 in MDCK; format: cell-based; conditions: Influenza A virus, MDCK cells, 100 CCID50, MTS
[12] = system: influenza B (B/Ned/537/05); assay: Antiviral CPE reduction assay, influenza B in MDCK; format: cell-based; conditions: Influenza B virus; MDCK cells, 100 CCID50, MTS
[13] = system: respiratory syncytial virus A (Long); assay: Antiviral CPE reduction assay, RSV A in HEL 299; format: cell-based; conditions: human respiratory syncytial virus; HEL 299 cells, 100 CCID50, MTS
[14] = system: herpes simplex virus-1 (HSV-1 KOS); assay: Antiviral CPE reduction assay, HSV-1 KOS in HEL 299; format: cell-based; conditions: Human alphaherpesvirus 1; HEL 299 cells, 100 CCID50, MTS
[15] = system: yellow fever virus (YFV 17D); assay: microbe, parasite or virus in culture; format: cell-based; conditions: Huh-7, read-out: Antiviral Activity (EC50/μM) YFV 17D Huh-7
Zika virus (Mr776) = assay: Antiviral CPE reduction assay, Zika virus in Huh-7; format: cell-based; conditions: Huh-7 cells, 100 CCID50, MTS
sindbis virus = assay: Antiviral CPE reduction assay, Sindbis virus in Huh-7; format: cell-based; conditions: Huh-7 cells, 100 CCID50, MTS
E. faecalis ATCC 29212 = assay: Broth microdilution MIC, E. faecalis; format: cell-based; conditions: Enterococcus faecalis, ATCC29212; read-out: MIC against E. faecalis
Method: as §1, §2, §3

in vitro [16] = conditions: human
in vitro [17] = conditions: human; remark: listed apart in the source
in vitro [18] = conditions: dog
[19] = system: K. pneumoniae ATCC 700603; assay: Broth microdilution MIC, K. pneumoniae; format: cell-based; conditions: Klebsiella pneumoniae, ATCC700603; read-out: MIC against K. pneumoniae
Method: as §1, §2, §3

human cancer cell lines = assay: Proliferation assay (MTS, 72 h), range over several cancer cell lines; format: cell-based
Excerpt: as §4
Adherent cell lines LN-229, HCT-116, and NCI-H460 and Capan-1 cells were seeded at a density between 500 and 1500 cells per well, in 384-well tissue culture plates (Greiner, Kremsmünster, Austria). […]
Suspension cell lines HL-60, K-562, Z-138, and DND-41 were seeded at densities ranging from 2500 to 5500 cells per well in 384-well culture plates containing the test compounds at the same concentration points. The cells were incubated for 72 h with the compounds and were then analyzed using the CellTiter 96® AQueous One Solution Cell Proliferation Assay (MTS) reagent (Promega, Madison, WI, USA) according to the manufacturer’s instructions. […]

SMILES	MIC E. coli efflux del (E. coli efflux del)	IC50 (LN-229, glioblastoma)	IC50 [1]	IC50 [2]	IC50 (NCI-H460, lung carcinoma)	IC50 [3]	IC50 [4]	IC50 [5]	IC50 [6]	EC50 [7]	EC50 [8]	EC50 [9]	EC50 [10]	EC50 [11]	EC50 [12]	EC50 [13]	EC50 [14]	EC50 [15]	EC50 (Zika virus (Mr776))	melting point	also measured
C[C@@H](O)[C@H]1C(=O)N2C(C(=O)O)=C(S[C@@H]3CN[C@H](C(=O)N(C)C)C3)[C@H](C)[C@H]12 [Meropenem, meropenem, reference compound]	8																				
Cn1c(/N=C/c2ccc([N+](=O)[O-])cc2)nc2ccc(C#N)cc21 [Compound 37, (E)-1-Methyl-2-((4-nitrobenzylidene)amino)-1H-benzo[d]imidazole-6-carbonitrile]	>64	> 100 µM	> 100 µM	> 100 µM	> 100 µM	> 100 µM	> 100 µM	> 100 µM	> 100 µM												MIC (S. aureus ATCC 29213): 32 µM (≈ 9.77 µg/mL)
CN(C)c1ccc(/C=N/c2nc3ccccc3n2-c2ccccc2)cc1 [Compound 38, (E)-N,N-Dimethyl-4-(((1-phenyl-1H-benzo[d]imidazol-2-yl)imino)methyl)aniline]	>64	> 100 µM	> 100 µM	> 100 µM	> 100 µM	> 100 µM	> 100 µM	> 100 µM	> 100 µM	> 100 µM	94.8 µM	> 100 µM	> 100 µM	> 100 µM	> 100 µM	> 100 µM	> 100 µM	> 100 µM	> 100 µM	204 to 207 °C	EC50 (sindbis virus): > 100 µM; MIC (E. faecalis ATCC 29212): 32 µM (≈ 10.9 µg/mL); CC50 (in vitro [16]): > 100 µM; CC50 (in vitro [17]): > 100 µM; CC50 (in vitro [18]): > 100 µM
CCCCCCn1c(N)nc2ccccc21 [Compound 23, 2-Amino-1-hexylbenzimidazole]	32	45.2 µM	46.5 µM	57.4 µM	60.2 µM	47.7 µM	44.9 µM	46.7 µM	44.7 µM												MIC (S. aureus ATCC 29213): 16 µM (≈ 3.48 µg/mL); MIC (E. faecalis ATCC 29212): 32 µM (≈ 6.95 µg/mL); MIC (E. coli efflux del; Escherichia coli, read-out: MIC against E. coli efflux dell): 32 µM (≈ 6.95 µg/mL); MIC [19]: 32 µM (≈ 6.95 µg/mL)
CCN(CC)c1ccc(/C=N/c2nc3ccc(C#N)cc3n2-c2ccccc2)c(O)c1 [Compound 41, (E)-2-((4-(Diethylamino)-2-hydroxybenzylidene)amino)-1-phenyl-1H-benzo[d]imidazole-6-carbonitrile]	>64	> 100 µM	69.5 µM	> 100 µM	> 100 µM	76.3 µM	49.6 µM	> 100 µM	35.2 µM	> 100 µM	89.5 µM	> 100 µM	> 100 µM	> 100 µM	> 100 µM	> 100 µM	> 100 µM	> 100 µM	> 100 µM	111 to 114 °C	EC50 (sindbis virus): > 100 µM; MIC (E. faecalis ATCC 29212): 32 µM (≈ 13.1 µg/mL); CC50 (in vitro [16]): > 100 µM; CC50 (in vitro [17]): > 100 µM; CC50 (in vitro [18]): 71.6 µM
CCN(CC)c1ccc(/C=N/c2nc3ccc(C#N)cc3n2CC(C)C)c(O)c1 [Compound 31, (E)-2-((4-(Diethylamino)-2-hydroxybenzylidene)amino)-1-isobutyl-1H-benzo[d]imidazole-6-carbonitrile]		> 100 µM	32.8 µM	> 100 µM	> 100 µM	34.4 µM	47.6 µM	> 100 µM	> 100 µM	> 100 µM	> 100 µM	32 µM	> 100 µM	> 100 µM	> 100 µM	> 100 µM	> 100 µM	> 100 µM	> 100 µM	205 to 208 °C	EC50 (sindbis virus): > 100 µM; pIC50 (human cancer cell lines; three cancer cell types, read-out: IC50, range over three cancer cell types): 4.32 to 4.48; CC50 (in vitro [16]): > 100 µM; CC50 (in vitro [17]): 85.7 µM; CC50 (in vitro [18]): 1.3 µM
CCN(CC)c1ccc(/C=N/c2nc3ccccc3n2-c2ccccc2)c(O)c1 [Compound 40, (E)-5-(Diethylamino)-2-(((1-phenyl-1H-benzo[d]imidazol-2-yl)imino)methyl)phenol]		21.5 µM	2.4 µM	9.6 µM	43.7 µM	2.2 µM	1.1 µM	12.9 µM	4.4 µM											197 to 201 °C	pIC50 (human cancer cell lines; Capan-1, DND-41, HL-60 and Z-138 cancer cell lines, read-out: IC50, range over several cancer cell lines): 5.36 to 5.96
CC(C)Cn1c(/N=C/c2ccc([N+](=O)[O-])cc2)nc2ccc(C#N)cc21 [Compound 32, (E)-1-Isobutyl-2-((4-nitrobenzylidene)amino)-1H-benzo[d]imidazole-6-carbonitrile]		> 100 µM	> 100 µM	> 100 µM	> 100 µM	> 100 µM	> 100 µM	> 100 µM	> 100 µM	38.5 µM	68.7 µM	> 100 µM	> 100 µM	> 100 µM	> 100 µM	> 100 µM	> 100 µM	> 100 µM	> 100 µM	277 to 279 °C	EC50 (sindbis virus): > 100 µM; CC50 (in vitro [16]): > 100 µM; CC50 (in vitro [17]): 90.1 µM; CC50 (in vitro [18]): > 100 µM
CCCCCCn1c(/N=C/c2ccc(N(C)C)cc2)nc2ccccc21 [Compound 42, (E)-4-(((1-Hexyl-1H-benzo[d]imidazol-2-yl)imino)methyl)-N,N-dimethylaniline]	64	> 100 µM	> 100 µM	> 100 µM	64.4 µM	> 100 µM	73.2 µM	90.8 µM	> 100 µM	34.7 µM	> 100 µM	> 100 µM	> 100 µM	> 100 µM	> 100 µM	> 100 µM	> 100 µM	> 100 µM	> 100 µM	231 to 234 °C	EC50 (sindbis virus): > 100 µM; MIC (S. aureus ATCC 29213): 32 µM (≈ 11.2 µg/mL); MIC (E. faecalis ATCC 29212): 32 µM (≈ 11.2 µg/mL); CC50 (in vitro [18]): 34.6 µM
